Results on 16 compounds are retold here after patent publication US20260035376A1, “COMPOSITIONS AND METHODS FOR INHIBITION OF RAS” (TheRas, Inc., priority 2022, published 2026).

For assay [1], the target named is T1, Avi-KRAS G12V (1-169) GppNHp/RAF1 RBD-3×FLAG (52-151) (Homo sapiens, UniProt P01116, G12V).
T1 construct: 50 nM Avi-KRAS G12V (1-169) GppNHp/RAF1 RBD-3×FLAG (52-151)
The assay is described as follows: Disrupting RAS-effector binding HTRF assay, Raf1 RBD-KRAS G12V-GppNHp. Conditions: PPI HTRF, 50 nM Avi-KRAS G12V GppNHp, compound titration 30-0.0045 μM; read-out: Raf1 RBD-KRAS G12V-GppNHp disruption. How it is done:
(§1) A protein:protein interaction (PPI) Homogeneous Time Resolved Fluorescence (HTRF) assay was used to determine the effectiveness of compounds of the present disclosure in disrupting KRAS protein and effector RAF1 binding.
(§2) The HTRF assay used the following reagents and proteins: (i) 50 nM Avi-KRAS G12D (1-169) GppNHp/RAF1 RBD-3×FLAG (52-151); (ii) 50 nM Avi-KRAS G12R (1-169) GppNHp/RAF1 RBD-3×FLAG (52-151); (iii) 50 nM Avi-KRAS G12V (1-169) GppNHp/RAF1 RBD-3×FLAG (52-151), (iv) 50 nM Avi-KRAS WT (1-169) GppNHp/RAF1 RBD-3×FLAG (52-151); and (v) 75 nM Avi-RAF1 RBD-3×FLAG. The assay buffer included: 50 mM Tris pH 7.5, 100 mM NaCl, 5 mM MgCl2, 0.1% BSA, […], 10% DMSO. The bead buffer included: 50 mM Tris pH 7.5, 0.01% o Tween 20. Assay volume of 20 μL was used in a 384 well plate-low volume format. Compound titration: 30-0.0045 μM, 3× dilution series.
(§3) The HTRF assay employed the following protocol:
(§4) Compounds were dispensed in assay plate (384-well, Grenier Bione #784075) using Echo (model 555) with dose response settings: 200 nL final volume, titration from 30 μM as a 10-point dilution series. Protein mix was prepared in assay buffer, and dispensed on plates, 10 μL per well, then incubated for 1 h at room temperature, with 700 rpm shaking. Reagents mix was prepared and dispensed on plates, 10 μL per well, then incubated for 1 h at room temperature, with 700 rpm shaking.
(§5) Plates were analyzed on an Envision plate reader using the following setting: Excitation 320 nm, Bandwidth 75 nM; Emission 615 nm, Bandwidth 85 nM, Gain 100%, Flashes 100, Lag 60 μs. Data were reported as percentage of activity, with DMSO as 100%. Data were plotted and analyzed using Prism 8.
(§6) The biochemical Raf1-KRAS G12D/G12R/G12V/WT-GppNHP disruption assay IC50 of selected compounds described herein are shown in Table 4.
For orientation: TR-FRET usually uses a lanthanide donor and a delayed reading to cut background.

The subject of assay [2] is KRAS G12D protein/effector signaling in GP2d cells. Put plainly: Cell-based pERK HTRF assay in GP2d cell. The note with it: 1 h, 60 min incubation. How it is done: A pERK assay (Perkin Elmer) was used to determine the effectiveness of compounds in disrupting KRAS G12D protein/effector signaling in cells.
On Day 1, cells (GP2d) were seeded into 96-well plates at 3×10^4 cells/well in 80 μL complete growth media (DMEM, 10% FBS).
On Day 2, cells were treated with compounds at 0.25% DMSO. The source plate was created with compounds diluted in media at 5-fold the final assay concentration. The compounds were run in a 9-point concentration curve starting at […], with a half-log dilution between concentrations. 20 μL was transferred onto the cell plates (final volume in wells was 100 μL). Plates were harvested after 60 min incubation by aspirating media and adding kit-supplied 1× supplemented lysis buffer to all wells (50 μL per well). Plates were then placed on a plate shaker and incubated at 850 rpm for an additional 30 min.
Antibody mixture solution was prepared by diluting aliquoted d2 and Eu Cryptate antibodies 1:20 in kit supplied detection buffer, and mixing the diluted antibodies solutions (1:1 v:v). 4 μL of this solution was then added to a 384-well detection plate (Perkin Elmer; 6008230).
Samples were homogenized by pipetting up and down and then transferred (16 μL of cell lysates) from the 96-well cell culture plate to two wells of the HTRF 384-well detection plate containing the antibody solution. Plates were centrifuged (524 g for 1 min) and allowed to incubate between 4 and 24 h at room temperature. Maximum signal was reached after 4 h incubation time and remained stable over a period of 24 hours. Therefore, readings could be made between 4 and 24 h of incubation. Plates were centrifuged again (524 g for 1 min), then analyzed on the EnVision plate reader using the following settings: Excitation 320 nm, Bandwidth 75 nm; Emission 615 nm, Bandwidth 85 nm; Gain 100%; Flashes 100; Lag 60 μs.

Assay [3] has as its target T2, Avi-KRAS G12R (1-169) GppNHp/RAF1 RBD-3×FLAG (52-151) (Homo sapiens, UniProt P01116, G12R).
T2 construct: 50 nM Avi-KRAS G12R (1-169) GppNHp/RAF1 RBD-3×FLAG (52-151)
The assay is described as follows: Disrupting RAS-effector binding HTRF assay, Raf1 RBD-KRAS G12R-GppNHp. Conditions: PPI HTRF, 50 nM Avi-KRAS G12R GppNHp, compound titration 30-0.0045 μM; read-out: Raf1 RBD-KRAS G12R-GppNHp disruption. The procedure: as §1, §2, §3, §4, §5, §6

The target of assay [4] is T3, Avi-KRAS WT (1-169) GppNHp/RAF1 RBD-3×FLAG (52-151) (Homo sapiens, UniProt P01116).
T3 construct: 50 nM Avi-KRAS WT (1-169) GppNHp/RAF1 RBD-3×FLAG (52-151)
T3 sequence (P01116 1-169 isoform P01116-2 limits assumed): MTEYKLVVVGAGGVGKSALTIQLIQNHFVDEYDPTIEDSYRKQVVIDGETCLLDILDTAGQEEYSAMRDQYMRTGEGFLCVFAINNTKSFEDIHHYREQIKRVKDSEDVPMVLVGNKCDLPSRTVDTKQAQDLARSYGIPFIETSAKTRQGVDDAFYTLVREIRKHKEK
Put plainly: Disrupting RAS-effector binding HTRF assay, Raf1 RBD-KRAS WT-GppNHp. Conditions: PPI HTRF, 50 nM Avi-KRAS WT GppNHp, compound titration 30-0.0045 μM; read-out: Raf1 RBD-KRAS WT-GppNHp disruption. How it is done: as §1, §2, §3, §4, §5, §6

In assay [5] the target is T4, Avi-KRAS G12D (1-169) GppNHp/RAF1 RBD-3×FLAG (52-151) (Homo sapiens, UniProt P01116, G12D).
T4 construct: 50 nM Avi-KRAS G12D (1-169) GppNHp/RAF1 RBD-3×FLAG (52-151)
T4 sequence (P01116 1-169 isoform P01116-2 G12D limits assumed): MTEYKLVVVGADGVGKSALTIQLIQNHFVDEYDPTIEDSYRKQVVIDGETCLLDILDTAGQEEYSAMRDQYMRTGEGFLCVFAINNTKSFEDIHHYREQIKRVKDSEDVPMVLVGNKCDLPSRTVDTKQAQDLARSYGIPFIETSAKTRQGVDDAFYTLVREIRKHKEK
Put plainly: Disrupting RAS-effector binding HTRF assay, Raf1 RBD-KRAS G12D-GppNHp. The note with it: PPI HTRF, 50 nM Avi-KRAS G12D GppNHp, compound titration 30-0.0045 μM; read-out: Raf1 RBD-KRAS G12D-GppNHp disruption. How it is done:
as §1, §2, §3, §4, §5, §6

T1 sequence (P01116 1-169 isoform P01116-2 G12V limits assumed): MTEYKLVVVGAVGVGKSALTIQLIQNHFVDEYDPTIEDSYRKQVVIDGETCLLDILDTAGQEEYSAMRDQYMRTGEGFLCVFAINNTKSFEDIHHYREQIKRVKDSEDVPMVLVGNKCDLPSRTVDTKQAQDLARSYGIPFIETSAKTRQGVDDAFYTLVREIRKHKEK
T2 sequence (P01116 1-169 isoform P01116-2 G12R limits assumed): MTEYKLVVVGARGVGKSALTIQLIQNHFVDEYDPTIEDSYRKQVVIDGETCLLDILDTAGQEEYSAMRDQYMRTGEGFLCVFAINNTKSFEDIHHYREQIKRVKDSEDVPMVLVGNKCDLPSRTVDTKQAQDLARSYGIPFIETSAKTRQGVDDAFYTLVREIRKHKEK

As to `CN(c1ncnc2c(F)c(-c3ccc(F)c4sc(N)c(C#N)c34)c(C(F)(F)F)cc12)[C@@H]1CCNC1` [Compound 58], the IC50 was more than 10 µM in assay [1]; 0.1 to 1 µM in assay [2]; more than 10 µM in assay [3]; more than 10 µM in assay [4]; 1 to 10 µM in assay [5].

For `N#Cc1c(N)sc2c(F)ccc(-c3c(C(F)(F)F)cc4c(N5C[C@H]6CC[C@@H](C5)N6)ncnc4c3F)c12` [Compound 5, 4-(4-((1R,5S)-3,8-diazabicyclo[3.2.1]octan-3-yl)-8-fluoro-6-(trifluoromethyl)quinazolin-7-yl)-2-amino-7-fluorobenzo[b]thiophene-3-carbonitrile], the IC50 in assay [1] is more than 10 µM; in assay [2], not above 0.1 µM; in assay [3], more than 10 µM; in assay [4], 1 to 10 µM; in assay [5] it was 1 to 10 µM.

`N#Cc1c(N)sc2c(F)ccc(-c3c(C(F)(F)F)cc4c(N5CC6CCC(C5)N6)nc(OCC5CCCCC5)nc4c3F)c12` [Compound 2]: the IC50 in assay [1], in assay [3], in assay [4] and in assay [5] was more than 10 µM in each case.

`N#Cc1c(N)sc2c(F)ccc(-c3c(C(F)(F)F)cc4c(N5CC6CCC(C5)N6)nc(N5CCCC5)nc4c3F)c12` [Compound 20]: the IC50 is more than 10 µM in assay [1]; 0.1 to 1 µM in assay [2]; more than 10 µM in assay [3]; 1 to 10 µM in assay [4]; 1 to 10 µM in assay [5].

Regarding `CCCc1nc(N2CC3CCC(C2)N3)c2cc(C(F)(F)F)c(-c3ccc(F)c4sc(N)c(C#N)c34)c(F)c2n1` [Compound 23], the IC50 in assay [1] was more than 10 µM; in assay [2], not above 0.1 µM; in assay [3] it was more than 10 µM; in assay [4], 1 to 10 µM; in assay [5] it was 1 to 10 µM.

Consider `COCCOc1nc(N2CC3CCC(C2)N3)c2cc(C(F)(F)F)c(-c3ccc(F)c4sc(N)c(C#N)c34)c(F)c2n1` [Compound 15], for which the IC50 in assay [1] was more than 10 µM; in assay [2], not above 0.1 µM; in assay [3], more than 10 µM; in assay [4] it was 1 to 10 µM; in assay [5], 1 to 10 µM.

On to `CC(=O)N(C)c1nc(N2C[C@H]3CC[C@@H](C2)N3)c2cc(C(F)(F)F)c(-c3ccc(F)c4sc(N)c(C#N)c34)c(F)c2n1` [Compound 21, N-(7-(2-amino-3-cyano-7-fluorobenzo[b]thiophen-4-yl)-4-((1R,5S)-3,8-diazabicyclo[3.2.1]octan-3-yl)-8-fluoro-6-(trifluoromethyl)quinazolin-2-yl)-N-methylacetamide], for which the IC50 is more than 10 µM in assay [1]; 0.1 to 1 µM in assay [2]; more than 10 µM in assay [3]; 1 to 10 µM in assay [4]; more than 10 µM in assay [5].

With `CC(C)Oc1nc(N2CC3CCC(C2)N3)c2cc(C(F)(F)F)c(-c3ccc(F)c4sc(N)c(C#N)c34)c(F)c2n1` [Compound 8], the IC50 was more than 10 µM in assay [1]; 0.1 to 1 µM in assay [2]; more than 10 µM in assay [3]; 1 to 10 µM in assay [4]; 1 to 10 µM in assay [5].

In the case of `N#Cc1c(N)sc2c(F)ccc(-c3c(C(F)(F)F)cc4c(N5CC6CCC(C5)N6)nc(N5CC(O)C5)nc4c3F)c12` [Compound 16], the IC50 is more than 10 µM in assay [1]; 0.1 to 1 µM in assay [2]; more than 10 µM in assay [3]; 1 to 10 µM in assay [4]; 1 to 10 µM in assay [5].

As to `COc1nc(N2CC3CCC(C2)N3)c2cc(C(F)(F)F)c(-c3ccc(F)c4sc(N)c(C#N)c34)c(F)c2n1` [Compound 1], the IC50 in assay [1] is more than 10 µM; in assay [2], not above 0.1 µM; in assay [3], more than 10 µM; in assay [4] it was 1 to 10 µM; in assay [5] it was 1 to 10 µM.

Consider `N#Cc1c(N)sc2c(F)ccc(-c3c(C(F)(F)F)cc4c(N5CC6CCC(C5)N6)nc(OC[C@H]5CNC(=O)C5)nc4c3F)c12` [Compound 24], for which the IC50 in assay [1] is 1 to 10 µM; in assay [2], not above 0.1 µM; in assay [3], 1 to 10 µM; in assay [4] it was 0.1 to 1 µM; in assay [5], 0.1 to 1 µM.

Regarding `CN(C)c1nc(N2C[C@H]3CC[C@@H](C2)N3)c2cc(C(F)(F)F)c(-c3ccc(F)c4sc(N)c(C#N)c34)c(F)c2n1` [Compound 10, 4-(4-((1R,5S)-3,8-diazabicyclo[3.2.1]octan-3-yl)-2-(dimethylamino)-8-fluoro-6-(trifluoromethyl)quinazolin-7-yl)-2-amino-7-fluorobenzo[b]thiophene-3-carbonitrile], the IC50 in assay [1] is more than 10 µM; in assay [2], more than 1 µM; in assay [3], more than 10 µM; in assay [4] it was more than 10 µM; in assay [5], 1 to 10 µM.

Take `N#Cc1c(N)sc2c(F)ccc(-c3c(C(F)(F)F)cc4c(N5CC6CCC(C5)N6)nc(OCCc5ccccc5)nc4c3F)c12` [Compound 13]: the IC50 in assay [1] was more than 10 µM; in assay [2], 0.1 to 1 µM; in assay [3], more than 10 µM; in assay [4], more than 10 µM; in assay [5] it was 1 to 10 µM.

In the case of `N#Cc1c(N)sc2c(F)ccc(-c3c(C(F)(F)F)cc4c(N5CC6CCC(C5)N6)nc(OC5CC(O)C5)nc4c3F)c12` (stereo not shown) [Compound 11], the IC50 in assay [1] was more than 10 µM; in assay [2], 0.1 to 1 µM; in assay [3] it was more than 10 µM; in assay [4] it was more than 10 µM; in assay [5], 1 to 10 µM.

For the compound `N#Cc1c(N)sc2c(F)ccc(-c3c(C(F)(F)F)cc4c(N5CC6CCC(C5)N6)nc(N5CCNC(=O)CC5)nc4c3F)c12` [Compound 25], the IC50 is more than 10 µM in assay [1]; 0.1 to 1 µM in assay [2]; more than 10 µM in assay [3]; 1 to 10 µM in assay [4]; 1 to 10 µM in assay [5].

For `N#Cc1c(N)sc2c(F)ccc(-c3c(C(F)(F)F)cc4c(N5CC6CCC(C5)N6)nc(N5CC[C@H](O)C5)nc4c3F)c12` [Compound 4], the IC50 was more than 10 µM in assay [1]; 0.1 to 1 µM in assay [2]; more than 10 µM in assay [3]; 1 to 10 µM in assay [4]; 1 to 10 µM in assay [5].
